For the assay, the target named is T1, Her2 kinase (Homo sapiens, UniProt P04626).
T1 construct: purchased Cell Signaling Tech #7382
Kind of assay: Inhibition Activity Assay on Her2 Enzyme (ELISA, PGT substrate). It is filed as biochemical. Conditions: 8 min at 4° C., read-out: Inhibition Activity (EC50) on Her-2. Here is the method: Inhibition Activity Assay on Her2 Enzyme
1. Her2 kinase, Cell Signaling Tech, #7382, Lot. 2, reserved at −80° C.;
2. PBST: PBS+0.05% (v/v) Tween 20;
3. Confining liquid: 3% of BSA in PBS;
4. HEPEs buffer (2×): 50 mM HEPEs, 20 mM MgCl2, 0.1 mM MnCl2, 0.2 mM Na3VO4, adjusted to pH of 7.4 with NaOH;
5. PGT, Sigma, Cat#P0275): 2 mg/ml of stock solution was prepared by dissolving PBS, reserved at −20° C.
6. ATP: […] of stock solution was prepared by dissolving ddH2O, reserved at −20° C.;
7. Mice anti-phosphorylation tyrosine-HRP: Invitrogen-037720, 0.5 mg/ml, reserved at 4° C.;
8. TMB: Cell Signaling Tech, Cat #7004L;
9. DTT: 2.5 M of stock solution was prepared with ddH2O, reserved at −20° C. Before use, 2×HEPEs buffer was added in the solution to the final concentration of 1.25 mM.
1. 2 mg/ml of PGT was diluted with PBS to 0.2 mg/ml. 60 μl of the resulting solution was added in each well. The elisa plate was placed in a refrigerator at 4° C. and coated overnight;
2. The coating solution was discarded to stop the coating. The plate was washed four times with PBS, and then beaten to dryness;
3. The elisa plate was placed in a refrigerator at 4° C., drained out and stood for 3h.
4. […] of aqueous solution of each compound was diluted with ddH2O to a desirable concentration. Then, the solution was added in the corresponding elisa well by 25 μl/well;
5. 2 nM of ATP solution was diluted with ddH2O to 25 folds and then sufficiently mixed. The resulting solution was separately added in each elisa well by 25 μl per well (25 μl ddH2O was added in the negative control);
6. Her2 kinase was diluted with 2×TKB to 800 folds. The resulting solution was added in the elisa well by 50 μl per well. Then, the enzyme reaction began. Moreover, the elisa plate was immediately placed in a micro-oscillator. The reaction is carried out for 8 min at the temperature of 4° C.;
7. 2% of SDS was added in the elisa well to stop the reaction by adding 100 μl of SDS in each well. The solution was sufficiently mixed on the micro-oscillator to sufficiently mix for about 5 min;
8. The reaction solution was sucked out. The plate was washed four times with PBST. After the plate was beaten to dryness, 0.25 μg/ml of mice anti-phosphorylation tyrosine-HRP which was diluted with confining liquid was added in the plate by 100 μl per well, and then reacted for 30 min at the room temperature.
9. The antibody reaction solution was sucked out. The plate was washed six times with PBST. After the plate was beaten to dryness, TMB peroxidase substrate was added in the plate with 100 μl/well, and then reacted in the dark for 15 min at the room temperature;
10. 100 μl of 2N H2SO4 was added in the solution to stop the chromogenic reaction. After the bubbles were cleansed, the solution was measured in elisa at 450 nm.
OD values were converted in relative inhibition ratios according to following formula: Relative inhibition ratio=[1−(experiment values−NC mean values)/(PC mean values−NC mean values)]×100%

Molecules are shown by their SMILES.

T1 sequence (P04626 676-1255 limits assumed): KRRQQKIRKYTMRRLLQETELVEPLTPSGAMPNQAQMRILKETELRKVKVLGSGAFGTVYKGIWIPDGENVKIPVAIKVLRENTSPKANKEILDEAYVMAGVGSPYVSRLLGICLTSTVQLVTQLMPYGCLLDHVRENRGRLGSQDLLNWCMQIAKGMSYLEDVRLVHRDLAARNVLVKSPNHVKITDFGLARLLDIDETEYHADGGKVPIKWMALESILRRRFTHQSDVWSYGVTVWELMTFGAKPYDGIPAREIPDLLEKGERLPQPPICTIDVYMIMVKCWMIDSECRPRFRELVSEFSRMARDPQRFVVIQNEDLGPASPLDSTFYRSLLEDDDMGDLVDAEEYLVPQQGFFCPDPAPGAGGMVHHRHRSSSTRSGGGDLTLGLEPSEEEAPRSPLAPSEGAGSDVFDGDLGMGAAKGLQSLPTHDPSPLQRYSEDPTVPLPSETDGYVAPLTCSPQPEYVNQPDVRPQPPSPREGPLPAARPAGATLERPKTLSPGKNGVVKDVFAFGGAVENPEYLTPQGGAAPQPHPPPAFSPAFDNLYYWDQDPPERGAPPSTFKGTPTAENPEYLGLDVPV

As to `N#Cc1cnc2cc(OC3CCOC3)c(NC(=O)C=C3CCNCC3)cc2c1Nc1ccc(F)c(Cl)c1` (stereo not shown) [Example 42, N-(4-(3-CHLORO-4-FLUOROPHENYLAMINO)-3-CYANO-7-(TETRAHYDROFURAN-3-YL-OXY)QUINOLIN-6-YL)-2-(PIPERIDIN-4-YLIDENE)ACETAMIDE], the EC50 came out at 291 nM.

(Values after patent US9187458B2, “Cyanoquinoline derivatives” (Tianjin Hemay Bio-Tech Co., LTD., priority 2010, dated 2015).)
